Consider 3 compounds from article PMC9482650, “Quantitative fragmentomics allow affinity mapping of interactomes” (Nature Communications, 2022).

What all share (assay type): binding
Test [1] concerns the target T1, MAST2 PDZ (Homo sapiens, UniProt Q6P0Q8).
T1 sequence (Q6P0Q8 1104-1192 limits assumed): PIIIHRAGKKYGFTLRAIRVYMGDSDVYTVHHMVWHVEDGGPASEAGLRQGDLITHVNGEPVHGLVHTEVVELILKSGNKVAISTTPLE
Briefly: biochemical. Particulars: composite holdup affinity; 0.00=below quantification threshold; read-out: COMP pKd (converted).

Test [2] deals with T2, PDZD2_2 PDZ (Homo sapiens, UniProt O15018).
T2 sequence (O15018 334-419 limits assumed): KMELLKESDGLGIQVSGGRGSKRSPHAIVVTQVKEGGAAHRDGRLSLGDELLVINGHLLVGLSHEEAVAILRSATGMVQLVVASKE
Briefly: Holdup assay.

For test [3], the target named is DLG4_2 PDZ (Homo sapiens, UniProt P78352). The test can be described thus: Holdup assay.
DLG4_2 PDZ, sequence (P78352 160-246 limits assumed): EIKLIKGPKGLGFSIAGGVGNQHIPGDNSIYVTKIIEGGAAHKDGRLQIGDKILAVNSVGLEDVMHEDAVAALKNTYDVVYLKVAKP
The target of test [4] is DLG2_2 PDZ (Homo sapiens, UniProt Q15700). Briefly: Holdup assay.
DLG2_2 PDZ, sequence (Q15700 193-279 limits assumed): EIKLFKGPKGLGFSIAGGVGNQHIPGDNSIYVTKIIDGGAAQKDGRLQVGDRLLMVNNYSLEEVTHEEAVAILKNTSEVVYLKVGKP
Test [5] addresses DLG1_1 PDZ (Homo sapiens, UniProt Q12959). The test can be described thus: Holdup assay.
Test [6] addresses MAST1 PDZ (Homo sapiens, UniProt Q9Y2H9). The test can be described thus: Holdup assay.
Test [7] deals with T3, TX1BP3 PDZ (Homo sapiens, UniProt O14907).
T3 sequence (O14907 15-112 limits assumed): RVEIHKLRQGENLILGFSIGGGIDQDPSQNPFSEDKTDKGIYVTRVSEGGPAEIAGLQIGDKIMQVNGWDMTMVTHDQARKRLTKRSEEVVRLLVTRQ
The test can be described thus: Holdup assay.

For test [8], the target named is T4, SNTG2 PDZ (Homo sapiens, UniProt Q9NY99).
T4 sequence (Q9NY99 73-156 limits assumed): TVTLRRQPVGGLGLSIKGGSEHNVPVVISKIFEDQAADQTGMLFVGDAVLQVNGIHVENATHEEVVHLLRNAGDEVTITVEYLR
Briefly: Holdup assay.

Test [9] concerns the target T5, SNTG1 PDZ (Homo sapiens, UniProt Q9NSN8).
T5 sequence (Q9NSN8 57-140 limits assumed): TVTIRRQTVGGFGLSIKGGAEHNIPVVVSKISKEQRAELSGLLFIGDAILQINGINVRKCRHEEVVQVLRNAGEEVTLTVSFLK
The test can be described thus: Holdup assay.

The target of test [10] is T6, SNTA1 PDZ (Homo sapiens, UniProt Q13424).
T6 sequence (Q13424 87-170 limits assumed): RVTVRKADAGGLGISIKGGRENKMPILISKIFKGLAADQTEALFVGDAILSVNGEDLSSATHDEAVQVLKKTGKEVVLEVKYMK
Briefly: Holdup assay.

For test [11], the target named is RHPN1 PDZ (Homo sapiens, UniProt Q8TCX5). The test can be described thus: Holdup assay.
RHPN1 PDZ, sequence (Q8TCX5 513-592 limits assumed): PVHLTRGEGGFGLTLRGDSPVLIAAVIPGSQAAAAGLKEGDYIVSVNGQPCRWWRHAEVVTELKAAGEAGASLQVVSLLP
The target of test [12] is T7, SCRIB2 PDZ (Homo sapiens, UniProt Q14160).
T7 sequence (Q14160 862-950 limits assumed): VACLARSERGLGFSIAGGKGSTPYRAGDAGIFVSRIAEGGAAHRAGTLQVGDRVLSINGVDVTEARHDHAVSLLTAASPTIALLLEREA
Briefly: Holdup assay.

Test [13] deals with T8, PDZRN3_1 PDZ (Homo sapiens, UniProt Q9UPQ7).
T8 sequence (Q9UPQ7 249-339 limits assumed): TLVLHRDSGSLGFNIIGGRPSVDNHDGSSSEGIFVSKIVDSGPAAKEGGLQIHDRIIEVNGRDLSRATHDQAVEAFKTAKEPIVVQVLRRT
The test can be described thus: Holdup assay.

Test [14] has as its target TJP2_1 PDZ (Homo sapiens, UniProt Q9UDY2). The test can be described thus: Holdup assay.
Test [15] has as its target T9, DLG3_1 PDZ (Homo sapiens, UniProt Q92796).
T9 sequence (Q92796 130-217 limits assumed): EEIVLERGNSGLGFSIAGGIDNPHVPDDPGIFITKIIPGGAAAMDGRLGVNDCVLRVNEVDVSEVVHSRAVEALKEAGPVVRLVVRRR
Briefly: Holdup assay.

Test [16] addresses DLG1_3 PDZ (Homo sapiens, UniProt Q12959). Briefly: Holdup assay.
Test [17] deals with MAGI2_3 PDZ (Homo sapiens, UniProt Q86UL8). The test can be described thus: Holdup assay.
MAGI2_3 PDZ, sequence (Q86UL8 605-683 limits assumed): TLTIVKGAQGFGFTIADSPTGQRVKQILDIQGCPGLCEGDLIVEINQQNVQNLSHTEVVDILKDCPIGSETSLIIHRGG
The target of test [18] is LRRC7 PDZ (Homo sapiens, UniProt Q96NW7). Briefly: Holdup assay.
LRRC7 PDZ, sequence (Q96NW7 1450-1535 limits assumed): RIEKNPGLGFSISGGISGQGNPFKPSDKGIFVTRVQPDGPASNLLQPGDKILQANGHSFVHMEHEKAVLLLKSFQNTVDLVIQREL
Test [19] addresses FRMPD2_1 PDZ (Homo sapiens, UniProt Q68DX3). Briefly: Holdup assay.
For test [20], the target named is LIN7A PDZ (Homo sapiens, UniProt O14910). The test can be described thus: Holdup assay.
LIN7A PDZ, sequence (O14910 108-190 limits assumed): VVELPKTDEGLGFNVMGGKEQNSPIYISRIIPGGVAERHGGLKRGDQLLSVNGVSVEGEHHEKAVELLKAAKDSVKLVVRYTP
Test [21] addresses CNKSR3 PDZ (Homo sapiens, UniProt Q6P9H4). The test can be described thus: Holdup assay. The source says: Supplement 41467_2022_33018_MOESM4_ESM.xlsx, sheet "PPI_convert" | column: CNKSR3
The target of test [22] is DLG2_1 PDZ (Homo sapiens, UniProt Q15700). Briefly: Holdup assay.
DLG2_1 PDZ, sequence (Q15700 98-184): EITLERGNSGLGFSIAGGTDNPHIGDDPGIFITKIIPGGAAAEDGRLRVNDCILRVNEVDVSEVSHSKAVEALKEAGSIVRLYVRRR
Test [23] addresses GIPC1 PDZ (Homo sapiens, UniProt O14908). Briefly: Holdup assay. The source says: Supplement 41467_2022_33018_MOESM4_ESM.xlsx, sheet "PPI_convert" | column: GIPC1
The target in test [24] is GRIP2_2 PDZ (Homo sapiens, UniProt Q9C0E4). The test can be described thus: Holdup assay.
GRIP2_2 PDZ, sequence (Q9C0E4 148-234 limits assumed): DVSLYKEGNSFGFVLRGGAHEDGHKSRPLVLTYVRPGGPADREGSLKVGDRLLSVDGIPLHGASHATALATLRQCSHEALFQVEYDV
In test [25] the target is LNX1_4 PDZ (Homo sapiens, UniProt Q8TBB1). Briefly: Holdup assay.
LNX1_4 PDZ, sequence (Q8TBB1 638-724 limits assumed): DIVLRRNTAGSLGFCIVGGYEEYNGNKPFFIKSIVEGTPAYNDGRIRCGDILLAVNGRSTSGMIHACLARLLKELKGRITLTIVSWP
Test [26] has as its target MAGI1_4 PDZ (Homo sapiens, UniProt Q96QZ7). Briefly: Holdup assay.
Test [27] addresses MPDZ_13 PDZ (Homo sapiens, UniProt O75970). The test can be described thus: Holdup assay. Particulars: sheet PPI_convert; read-out: affinity to PDZ MPDZ_13 (converted).
Test [28] addresses PDZD4 PDZ (Homo sapiens, UniProt Q76G19). Briefly: Holdup assay. Particulars: sheet PPI_convert; read-out: affinity to PDZ PDZD4 (converted). The source says: Supplement 41467_2022_33018_MOESM4_ESM.xlsx, sheet "PPI_convert" | column: PDZD4
The mark [29] stands for this setting: composite holdup affinity, 0.00=below quantification threshold, read-out: COMP pKd (converted).

Like-named read-outs stand apart in the source and are kept apart here. Ends that are not written are not given here.

CNKSR3 PDZ, sequence (Q6P9H4 211-293 limits assumed): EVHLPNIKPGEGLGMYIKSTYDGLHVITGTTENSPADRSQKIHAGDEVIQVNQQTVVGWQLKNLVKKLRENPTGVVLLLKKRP
MAST1 PDZ, sequence (Q9Y2H9 967-1055 limits assumed): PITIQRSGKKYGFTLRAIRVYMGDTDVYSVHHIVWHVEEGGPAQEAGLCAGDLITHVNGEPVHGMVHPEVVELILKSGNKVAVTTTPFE
FRMPD2_1 PDZ, sequence (Q68DX3 775-861 limits assumed): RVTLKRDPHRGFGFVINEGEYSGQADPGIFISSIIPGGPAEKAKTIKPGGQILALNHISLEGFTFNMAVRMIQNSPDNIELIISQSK
GIPC1 PDZ, sequence (O14908 133-213 limits assumed): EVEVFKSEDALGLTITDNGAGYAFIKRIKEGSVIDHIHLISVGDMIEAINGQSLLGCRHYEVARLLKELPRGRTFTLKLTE
TJP2_1 PDZ, sequence (Q9UDY2 33-120 limits assumed): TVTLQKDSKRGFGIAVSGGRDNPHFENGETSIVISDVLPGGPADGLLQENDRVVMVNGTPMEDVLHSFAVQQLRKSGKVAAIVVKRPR
MPDZ_13 PDZ, sequence (O75970 1987-2070 limits assumed): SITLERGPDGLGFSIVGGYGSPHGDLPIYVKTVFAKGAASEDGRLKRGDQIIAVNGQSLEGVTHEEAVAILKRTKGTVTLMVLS
MAGI1_4 PDZ, sequence (Q96QZ7 813-895 limits assumed): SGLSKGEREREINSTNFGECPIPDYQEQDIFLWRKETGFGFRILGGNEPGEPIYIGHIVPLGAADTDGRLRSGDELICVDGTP
PDZD4 PDZ, sequence (Q76G19 130-214 limits assumed): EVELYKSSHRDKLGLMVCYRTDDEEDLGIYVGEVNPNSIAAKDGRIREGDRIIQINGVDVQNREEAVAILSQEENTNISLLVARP

With `CC(C)C[C@H](NC(=O)[C@@H](N)CCCNC(=N)N)C(=O)N[C@@H](CCC(N)=O)C(=O)N[C@@H](CCCNC(=N)N)C(=O)N[C@@H](CCCNC(=N)N)C(=O)N[C@@H](CCCNC(=N)N)C(=O)N[C@@H](CCC(=O)O)C(=O)N[C@H](C(=O)N[C@@H](CCC(N)=O)C(=O)N[C@H](C(=O)O)C(C)C)[C@@H](C)O` [HPV18-E6], the Kd in test [1] is 16.6 µM; in [2], 437 µM; in test [3] it was 3.47 µM; in test [4], 6.46 µM; in test [5] it was 5.5 µM; in test [6], 4.68 µM. The Kd in test [7] is 21.9 µM; in test [8], 93.3 µM; in test [9], 117 µM; in test [10] it was 20 µM; in test [11] it was 234 µM; in test [12] it was 36.3 µM. The Kd in test [13] is 15.1 µM; in test [14] it was 129 µM; in test [15], 45.7 µM; in test [16], 9.55 µM; in test [17] it was 70.8 µM; in [18], 724 µM. Moreover, the Kd in [19] is 79.4 µM; in test [20] it was 398 µM; in test [21] it was 79.4 µM; in test [22] it was 7.76 µM; in test [23], 36.3 µM; in test [24] it was 33.1 µM. Moreover, the values for the Kd in test [25] and in test [26] were 93.3 µM and 52.5 µM, respectively.

For the compound SKPTRRETEV [HPV35-E6], the Kd in test [1] is 8.13 µM; in test [2] (setting [29]) it was 166 µM; in test [3] (setting [29]), 3.09 µM; in [4] (setting [29]), 5.37 µM; in test [5] (setting [29]) it was 9.55 µM; in test [7] (setting [29]), 11.7 µM. In addition, the Kd is 112 µM in test [8] (setting [29]); 49 µM in test [9] (setting [29]); 14.1 µM in test [10] (setting [29]); 20 µM in [12] (setting [29]); 12.9 µM in [13] (setting [29]); 35.5 µM in test [15] (setting [29]). The Kd in [16] (setting [29]) was 17 µM; in test [18] (setting [29]), 257 µM; in test [19] (setting [29]), 324 µM; in [21] (sheet PPI_convert, read-out: affinity to PDZ CNKSR3 (converted)) it was 269 µM; in test [22] (sheet PPI_convert, read-out: affinity to PDZ DLG2_1 (converted)), 12.3 µM; in [23] (sheet PPI_convert, read-out: affinity to PDZ GIPC1 (converted)), 20.4 µM. Moreover, the Kd in [25] (sheet PPI_convert, read-out: affinity to PDZ LNX1_4 (converted)) was 324 µM; in test [27], 170 µM; in test [28], 282 µM.

On to SRRPRTETQV [HPV31-E6], for which the Kd in test [1] was 5.89 µM; in test [2] (setting [29]), 200 µM; in test [3] (setting [29]), 4.37 µM; in test [4] (setting [29]), 4.27 µM; in test [5] (setting [29]) it was 6.92 µM; in test [6] (setting [29]), 38 µM. The Kd in [7] (setting [29]) is 24.5 µM; in [8] (setting [29]), 83.2 µM; in test [9] (setting [29]), 58.9 µM; in test [10] (setting [29]) it was 51.3 µM; in test [11] (setting [29]) it was 182 µM; in test [12] (setting [29]) it was 41.7 µM. Also, the Kd in [13] (setting [29]) was 81.3 µM; in test [14] (setting [29]), 219 µM; in test [15] (setting [29]) it was 36.3 µM; in test [16] (setting [29]), 25.1 µM; in [17] (setting [29]) it was 79.4 µM; in [20] (setting [29]) it was 309 µM.
